# Measured values as given in patent US20250280843A1, “METHOD FOR INHIBITING POTATOES FROM GREENING AND USE THEREOF” (priority 2024, published 2025).
# Like-named read-outs stand apart in the source and are kept apart here.
# Experiments:
# [1] = tested on: StPOD42; test: Gene expression by real-time PCR: germination-promoting gene; set-up: species or system potato; conditions: during storage; vs control
# Experimental: Germination-promoting genes included StPOD42 (XM_006363284.2).
# (§1) Total RNA was extracted from frozen potato skins and transformed into cDNA. The expression levels of the aforementioned genes were determined by a Bio-Rad CFX 96 Real-Time PCR System (BIO-RAD, Hercules, CA, USA) and a SYBR Green I Master Mix (Vazyme, Nanjing, Jiangsu, China). Thermocycling conditions included an initial denaturation step at 95° C. for 30 s, followed by 39 cycles of 95° C. for 15 s, then 55° C. for 30 s, and 72° C. for 20 s. Three biological replicates were used, and each replicate was measured for three times. StEF-1a was used as a reference gene for potatoes. Gene expression was calculated by using a 2-ΔCt method.
# [2] = tested on: potato tubers; test: Determination of ethylene release amount; type: in vivo, potato ("V7"); conditions: illumination group, entire storage period 12 d; vs control
# Experimental: (§2) “V7” potatoes were used as experimental materials. They were collected from Dongyu Vegetable Market in Ningbo City, Zhejiang Province. They were freshly picked and transported to the laboratory at room temperature. They were cleaned, and tubers of uniform sizes and free of diseases and insect pests and free of mechanical damages were selected as experimental samples. The samples were divided into two groups, immersed in distilled water for 10 min and then naturally air-dried after the immersion treatment was ended.
# (§3) One group served as a control group (CK) without any subsequent treatment, and contained 50 potatoes. For another group, a carton was provided, in which 50 potatoes were placed. The carton was placed in a controlled atmosphere storage box with a volume of 1,000 L at a temperature controlled at 25° C. and the humidity maintained at 60%. The gas composition in the controlled atmosphere storage box was maintained the same as that of the atmosphere. A space was reserved in the controlled atmosphere storage box. 10 mg of 1-MCP dry powder was weighed into a glass weighing bottle. […]
# 4 potato tubers were randomly selected and placed in a sealed container (illumination group). They were placed at respective storage temperatures for 3 h, and then 5 mL of gas was extracted and determined for ethylene content using a Shimadzu type 2014C gas chromatograph (Shimadzu, Japan). […]
# [3] = tested on: potato tubers; test: Determination of greening index a* of potato tuber skin after fumigation; type: in vivo, potato ("V7"); conditions: for greening index a*: fumigation 10 mg 1-MCP + NaOH 16 h; for Value of greening index a*: with NaOH
# Text: The method for inhibiting potatoes from greening was: treating potato tubers with 1-MCP, and specifically, fumigating potato tubers with 1-MCP and NaOH.
# as §2
# (§4) One group served as a control group (CK) without any subsequent treatment, and contained 50 potatoes. For another group, a carton was provided, in which 50 potatoes were placed. The carton was placed in a controlled atmosphere storage box with a volume of 1,000 L at a temperature controlled at 25° C. and the humidity maintained at 60%. The gas composition in the controlled atmosphere storage box was maintained the same as that of the atmosphere. A space was reserved in the controlled atmosphere storage box. 10 mg of 1-MCP dry powder was weighed into a glass weighing bottle. The weighing bottle containing 1-mcp was placed in the controlled atmosphere storage box, and added with 2 ml of a 1M NaOH solution to release 1-mcp gas from the weighing bottle. The weight of the gas was 10 mg. The potatoes were placed in the gas environment, fumigated for 16 h, taken out and then air-dried for 1 h. The meaning of “fumigation” here was to put the potatoes in a gas environment of 10 mg 1-mcp in a 1,000 L controlled atmosphere storage box, which was equivalent to a concentration of 0.01 milligrams of the 1-mcp gas per liter of gas.
# Subsequently, the potatoes of the control group (2 groups) and the treatment group (2 groups) were bagged (two groups). The two groups were stored in a constant temperature and humidity chamber at 25±1° C. and relative humidity of 60% for 12 d. One of the groups was an illumination group with an illumination intensity of 10,000 LUX, and the other one was a group with protection from light having an illumination intensity of 0 LUX (in the dark). The tuber skin of the potatoes was taken every 3 d and photographed. The skin was then frozen in liquid nitrogen, and stored at −80° C. for subsequent analysis.
# Potato tubers treated for corresponding days were picked out. 6 potatoes were randomly selected from each group. the skin of potato tuber was peeled off, and immediately measured for the color difference with a colorimeter (Shenzhen ThreeNH Technology Co., Ltd., model: NR60CP+), and the a* value was determined and recorded with a […] to indicate the color change of the potato skin. a* was an important parameter for measuring color and lustre. The positive or negative value indicated reddish (positive indicated reddish) or greenish (negative indicated greenish), and the magnitude of the absolute value indicated the degree of reddish or greenish. The colorimeter was calibrated with a standard white plate before determination.
# Three groups of experiments were set up. One group was as described in Example 1, in which potato tubers were fumigated with 1-MCP and NaOH, serving as the control group in this experiment. The difference between an experimental group 1 and the control group was that no NaOH solution was used, but an equal volume of water was used. The difference between an experimental group 2 and the control group was that no NaOH solution was used, but an equal volume of anhydrous ethanol was used.
# This example employed the method provided in Example 1, and employed 1-MCP and NaOH to fumigate potato tubers, where the dosages of 1-MCP were 1, 5, 10, 15, and 20 mg, respectively. The greening index a* value was determined by the same method as in Example 1.
# [4] = cited from earlier work
# [5] = tested on: solanine synthesis-related genes; test: Gene expression by real-time PCR: solanine synthesis genes; set-up: species or system potato; conditions: during the greening period; vs control
# Experimental: Genes related to inhibition of solanine synthesis included StHMGR, StPSS1, StSQE1, StCAS1, StSSR2, StSSR1, StPGA2, StPGA1, StDOX, StGAME6, StPGA3, StGAME12, StSGT1, StSGT2, and StSGT3.
# as §1
# [6] = tested on: potato tubers; test: Determination of chlorophyll content; type: in vivo, potato ("V7"); conditions: illumination group, during storage 12 d; vs control
# Experimental: as §2
# as §3, with “atmosphere.” for “atmosphere. A space was reserved in the controlled atmosphere storage box. 10 mg of 1-MCP dry powder was weighed into a glass weighing bottle.”
# 0.2 g of a potato frozen sample (the sample of the illumination group) was taken, grounded into a homogenate with 1.5 mL of 95% (v/v) ethanol in an ice bath, and then centrifuged at a rotational speed of 10.000 r/min for 10 min. The precipitate was discarded, the supernatant was taken, and 95% ethanol was used as a blank group, to determine the absorbance values at 649 nm and 665 nm, respectively. […]
# [7] = tested on: chlorophyll degradation-related genes; test: Gene expression by real-time PCR: chlorophyll degradation genes; set-up: species or system potato; conditions: during the greening period; vs control
# Experimental: Chlorophyll degradation-related genes included StSGR, StNYC1, StTIC, and StPAO.
# as §1
# [8] = tested on: potatoes; type: in vivo, potato; conditions: under illumination; specific experimental data omitted
# Text: Ethylene, as a plant hormone that promotes maturity and aging, can be produced by some plants themselves and exists in a certain amount in the storage environment and even in the air. Ethylene binds with a related receptor inside a cell to activate a series of physiological and biochemical reactions related to maturity, thereby accelerating aging and death. 1-MCP can also bind well with an ethylene receptor, but such binding will not cause a biochemical reaction of maturity. Therefore, before the production of endogenous ethylene in a plant or the action of exogenous ethylene, if 1-MCP is applied, it will bind with the ethylene receptor first, thereby preventing the binding of ethylene with the receptor thereof, which greatly prolongs the ripening and aging process of fruits and vegetables and extends the length for preservation. There are many reagents that bind with the ethylene receptor to control the production of ethylene, e.g. aminooxyacetic acid (AOA), salicylic acid (SA), 2,5-norbornadiene (2,5-NBD), silver thiosulfate (STS), and aminooxyvinylglycine (AVG). These reagents are all ethylene inhibitors.
# [9] = tested on: chlorophyll synthesis-related genes; test: Gene expression by real-time PCR: chlorophyll synthesis genes; set-up: species or system potato; conditions: during the greening period; vs control
# Experimental: Chlorophyll synthesis-related genes included StHEMA, StGSA, StPBGD, StCPO, StPPO, StCHLD, StCHLI, StCHLH, STCHLHM, StCRD1, StPOR1, StPOR2, StCHLG, and StCHLP.
# as §1
# [10] = tested on: potato tubers; test: Determination of solanine content (LC-MS); type: in vivo, potato ("V7"); conditions: vs control
# Experimental: as §2
# One group served as a control group (CK) without any subsequent treatment, and contained 50 potatoes. For another group, a carton was provided, in which 50 potatoes were placed. The carton was placed in a controlled atmosphere storage box with a volume of 1,000 L at a temperature controlled at 25° C. and the humidity maintained at 60%. The gas composition in the controlled atmosphere storage box was maintained the same as that of the atmosphere. A space was reserved in the controlled atmosphere storage box. 10 mg of 1-MCP dry powder was weighed into a glass weighing bottle. The weighing bottle containing 1-mcp was placed in the controlled atmosphere storage box, and added with 2 ml of a 1M NaOH solution to release 1-mcp gas from the weighing bottle. The weight of the gas was 10 mg. The potatoes were placed in the gas environment, fumigated for 16 h, taken out and then air-dried for 1 h. The meaning of “fumigation” here was to put the potatoes in a gas environment of 10 mg 1-mcp in a 1,000 L controlled atmosphere storage box, which was equivalent to a concentration of 0.01 milligrams of the 1-mcp gas per liter of gas. […]
# Solanine was mainly composed of solanine and chaconine, with solanidine as aglycone. Therefore, α-solanine and α-chaconine (Sigma-Aldrich, USA) were used as chemical standards for quantification of SGA content. • 1) Liquid chromatography conditions: AgilentEclipsePlusC18 chromatographic column (100 mm×2.1 mm, 1.8 μm); the mobile phase A was 1 mmol/L of an acidified ammonium formate solution, and the mobile phase B was acetonitrile. […]
# [11] = tested on: potato tubers; test: Long-term preservation effect under natural illumination; type: in vivo, potato ("V7"); conditions: for color difference value: natural day/night, 25±1° C.
# Experimental: as §4
# In order to simulate natural illumination, the aforementioned control and treated potatoes were placed in an incubator (fully transparent), and placed under conditions of 25±1° C. and relative humidity of 60% in an outdoor environment. Based on the environment with natural alternation of day and night, the color difference was calculated through instruments. The change in color difference values was measured every 5 days during storage for 2, 3, and 6 months. […] In the 2nd month of storage, the color difference value of the control group was −14, while the test value of the treatment group was −2.2.
molecule,measurement,setting,value
1-methylcyclopropene [1-MCP],expression of the germination-promoting gene StPOD42,[1],did not affect the expression
same,ethylene release amount,[2],always lower than that of the control group
same,greening index a*: fumigation with NaOH compared with equal volume of water or ethanol,"[3]; Example 3, 1-MCP released with NaOH solution vs water vs anhydrous ethanol",significantly improve the effect of 1-MCP in inhibiting greening
same,greening index a*,"[3]; dark (0 LUX), 6th day of storage",basically no greening
same,Value of greening index a*,"[3]; dosage of 1-MCP 1 mg, storage 12 d",−3.2
same,Value of greening index a*,"[3]; dosage of 1-MCP 5 mg, storage 12 d",−2.1
same,Value of greening index a*,"[3]; dosage of 1-MCP 10 mg, storage 12 d",−1.2
same,Value of greening index a*,"[3]; dosage of 1-MCP 15 mg, storage 12 d",−1.8
same,Value of greening index a*,"[3]; dosage of 1-MCP 20 mg, storage 12 d",−2.6
same,greening index a*,"[3]; illumination 10,000 LUX, 25±1° C., storage 12 d, vs control",still remained at a relatively high level
same,solubility in solvent,[4]; 3-dichlorotoluene,2000 µg/mL
same,water solubility,[4]; 20° C.,137 µg/mL
same,solubility in solvent,[4]; acetone,2400 µg/mL
same,solubility in solvent,[4]; ethyl acetate,12500 µg/mL
same,solubility in solvent,[4]; heptane,2500 µg/mL
same,solubility in solvent,[4]; methanol,11250 µg/mL
same,solubility in solvent,[4]; xylene,2300 µg/mL
same,expression amount of solanine synthesis-related genes,[5],significantly lower than those in the control group
same,chlorophyll content,[6],increased slowly compared with the control group
same,expression amount of chlorophyll degradation genes,[7],significantly higher than those in the control group
same,effect on greening of potatoes,[8],significantly inhibit potatoes from greening
same,expression amount of chlorophyll synthesis-related genes,[9],significantly lower than those in the control group
same,solanine content,"[10]; during storage, dark or light",increased very slowly
same,α-chaconine content,[10]; starting from the 3rd day,significantly different from those in the control group
same,α-solanine content,[10]; starting from the 3rd day,significantly different from those in the control group
same,appearance (green spots),[11]; 2nd month of storage,no obvious changes
same,color difference value,[11]; 2nd month of storage,−2.2
same,germination in appearance,[11]; 3 months of storage,a small amount of germination
same,occurrence of greening,[11]; 3 months of storage,no occurrence of greening
same,color difference value,[11]; 3 months of storage,−3.4
same,germination,[11]; 6 months of storage,a small amount of germination
same,occurrence of greening,[11]; 6 months of storage,no occurrence of greening
same,solanine content,[11]; 6 months of storage,maintained within a safe range
same,color difference value,[11]; 6 months of storage,−6.7
"C1=CC2C=CC1C2 [2,5-norbornadiene]",effect on greening of potatoes,[8],accelerate the greening progress
NOCC(=O)O [aminooxyacetic acid],effect on greening of potatoes,[8],will not inhibit the potatoes from greening
O=C(O)c1ccccc1O [salicylic acid],effect on greening of potatoes,[8],accelerate the greening progress
silver thiosulfate,effect on greening of potatoes,[8],will not inhibit the potatoes from greening
